The test system of the assay is TNFα. Briefly: Effect on TNFα expression, cell based immunoassay in RAW 264.7 cells. Also noted: species or system mouse. The protocol: This was carried out using a cell based immunoassay using mouse monocyte/macrophage cells (RAW 264.7; ATCC American Tissue Culture Collection). The experiment was done in triplicates. The data were analyzed by t-test. […] Based on this tryptophan is an ant-inflammatory amino acid.

With `N[C@@H](Cc1c[nH]c2ccccc12)C(=O)O` [Tryptophan], the TNFα (Tryptophan 50 μg/ml, control Medium + LPS 1 μg/ml 6156, triplicates) was found to be 4869 pg/mL. Besides, the “TNFα, treated value versus control value (t-test)” value (p<0.05) is listed as “significant difference”.
